For one test, the system named is LYN. The settings on record: BT549 cells, Western blot; cited from earlier work. In general terms: Immunoblotting shows a protein as a band on a membrane.
Test [1] deals with mesenchymal breast cancer lines. The settings on record: at concentrations that inhibit LYN kinase activity; cited from earlier work.
Test [2] shares this test system. The settings on record: at concentrations that inhibit LYN kinase activity; cited from earlier work. The source holds these as a separate data set.
The next test has as its target T1, WNK3(h) (Homo sapiens, UniProt Q9BYP7).
T1 construct: purchased Millipore (Dundee UK), contract testing service
In words: Millipore kinase profiling, WNK3. It counts as biochemical. The settings on record: 100 μM concentration. The method, then: (§1) The three compounds identified in Example 1 were tested for kinase activity at Millipore (Dundee UK). The compounds were shipped as 10 mM stocks in DMSO as per Millipore testing standards. The testing consisted of two initial phases:
(§2) (a) Profiling against a set of approximately 60 kinases, selected as representative of all kinases and current kinase drug targets, to determine the selectivity of the compounds; and, (b) IC50 testing againstr EGFR, the kinase target of the initial search template molecule.

Another test addresses Abl kinase (BCR-Abl) (Homo sapiens, UniProt P00519). In words: Kinase profiling, Abl. It counts as biochemical. The settings on record: 100 μM concentration. As to the method:
(§3) FIG. 9 is a schematic kinome tree illustrating the evolutionary relationships between 299 kinases. The inhibition of 68 representative kinases by VI301 at 100 μM concentration was evaluated.
as §1, §2

The target in another test is T2, Lyn(h) (Homo sapiens, UniProt P07948).
T2 construct: purchased Millipore (Dundee UK), contract testing service
T2 sequence (P07948 1-491 isoform P07948-2): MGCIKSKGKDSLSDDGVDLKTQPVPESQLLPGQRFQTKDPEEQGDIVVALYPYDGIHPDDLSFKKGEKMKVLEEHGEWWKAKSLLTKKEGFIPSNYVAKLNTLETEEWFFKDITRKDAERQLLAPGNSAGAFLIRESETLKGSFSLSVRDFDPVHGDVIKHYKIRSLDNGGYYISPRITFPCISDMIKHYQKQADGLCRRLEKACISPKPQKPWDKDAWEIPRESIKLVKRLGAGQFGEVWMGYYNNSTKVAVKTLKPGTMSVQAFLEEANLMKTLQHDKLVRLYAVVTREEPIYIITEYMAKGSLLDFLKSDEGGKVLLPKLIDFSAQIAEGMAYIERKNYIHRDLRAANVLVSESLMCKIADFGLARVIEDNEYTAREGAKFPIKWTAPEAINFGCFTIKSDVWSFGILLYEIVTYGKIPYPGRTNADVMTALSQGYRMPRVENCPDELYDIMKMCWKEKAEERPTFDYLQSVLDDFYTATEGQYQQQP
The test can be described thus: Millipore kinase profiling, Lyn. It counts as biochemical. Conditions: 100 μM concentration. The method, then:
as §1, §2

A further test addresses T3, Pim-1(h) (Homo sapiens, UniProt P11309).
T3 construct: purchased Millipore (Dundee UK), contract testing service
The test can be described thus: Millipore kinase profiling, Pim-1. It counts as biochemical. The settings on record: 100 μM concentration. As to the method: as §1, §2

The next test addresses CamK1 (Homo sapiens, UniProt Q14012). In words: Kinase profiling, CamK1. It counts as biochemical. Conditions: 100 μM concentration. The method, then:
as §3, §1, §2

Each structure is given as a SMILES string.

By inhibition is commonly meant the relative decrease from the control value, in per cent.

T1 sequence (Q9BYP7 whole entry): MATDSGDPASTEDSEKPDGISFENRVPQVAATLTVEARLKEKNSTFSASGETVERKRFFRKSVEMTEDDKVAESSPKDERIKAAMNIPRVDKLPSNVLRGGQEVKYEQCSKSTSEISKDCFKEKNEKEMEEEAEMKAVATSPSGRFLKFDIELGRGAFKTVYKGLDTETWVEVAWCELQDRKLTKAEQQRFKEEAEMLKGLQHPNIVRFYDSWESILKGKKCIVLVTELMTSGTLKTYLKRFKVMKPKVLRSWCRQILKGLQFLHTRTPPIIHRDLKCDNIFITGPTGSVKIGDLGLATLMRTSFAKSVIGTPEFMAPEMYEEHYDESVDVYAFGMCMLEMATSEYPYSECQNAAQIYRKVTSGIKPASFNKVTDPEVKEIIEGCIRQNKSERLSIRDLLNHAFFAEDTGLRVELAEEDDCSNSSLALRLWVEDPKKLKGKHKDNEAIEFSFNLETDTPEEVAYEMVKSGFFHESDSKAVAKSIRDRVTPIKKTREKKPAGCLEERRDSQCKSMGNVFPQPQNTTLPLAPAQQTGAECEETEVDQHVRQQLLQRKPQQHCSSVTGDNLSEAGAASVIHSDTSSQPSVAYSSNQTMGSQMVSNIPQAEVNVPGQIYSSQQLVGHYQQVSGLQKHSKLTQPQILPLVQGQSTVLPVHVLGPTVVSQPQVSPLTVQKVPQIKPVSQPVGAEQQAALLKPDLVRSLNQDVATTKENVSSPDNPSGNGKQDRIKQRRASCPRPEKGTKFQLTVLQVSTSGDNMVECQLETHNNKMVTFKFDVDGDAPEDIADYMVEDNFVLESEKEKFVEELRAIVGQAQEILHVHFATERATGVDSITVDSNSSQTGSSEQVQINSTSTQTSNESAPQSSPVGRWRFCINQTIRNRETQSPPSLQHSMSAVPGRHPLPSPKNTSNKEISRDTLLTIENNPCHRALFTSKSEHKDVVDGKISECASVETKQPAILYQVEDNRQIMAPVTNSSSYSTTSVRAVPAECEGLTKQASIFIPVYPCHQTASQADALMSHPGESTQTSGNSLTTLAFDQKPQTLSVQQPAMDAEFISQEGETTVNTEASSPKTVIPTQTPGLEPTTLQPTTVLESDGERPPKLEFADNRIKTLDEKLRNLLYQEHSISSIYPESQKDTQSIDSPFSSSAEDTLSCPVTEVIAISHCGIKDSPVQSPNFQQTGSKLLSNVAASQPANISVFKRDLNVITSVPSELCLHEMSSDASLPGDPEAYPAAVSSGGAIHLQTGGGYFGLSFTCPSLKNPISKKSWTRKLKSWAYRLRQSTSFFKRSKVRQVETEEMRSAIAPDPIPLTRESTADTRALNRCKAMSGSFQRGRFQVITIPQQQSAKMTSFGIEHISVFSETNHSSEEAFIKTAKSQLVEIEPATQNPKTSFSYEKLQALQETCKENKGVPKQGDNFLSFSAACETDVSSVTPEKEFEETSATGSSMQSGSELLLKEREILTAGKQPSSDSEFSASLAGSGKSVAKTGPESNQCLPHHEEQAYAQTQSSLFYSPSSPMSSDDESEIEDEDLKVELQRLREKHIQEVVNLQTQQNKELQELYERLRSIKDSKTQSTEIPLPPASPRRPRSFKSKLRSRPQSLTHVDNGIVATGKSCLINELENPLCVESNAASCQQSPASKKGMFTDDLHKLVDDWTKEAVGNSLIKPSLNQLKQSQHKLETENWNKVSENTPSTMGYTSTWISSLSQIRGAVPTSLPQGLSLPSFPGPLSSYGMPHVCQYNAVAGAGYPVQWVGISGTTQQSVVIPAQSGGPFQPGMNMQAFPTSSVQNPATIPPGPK
T3 sequence (P11309 whole entry): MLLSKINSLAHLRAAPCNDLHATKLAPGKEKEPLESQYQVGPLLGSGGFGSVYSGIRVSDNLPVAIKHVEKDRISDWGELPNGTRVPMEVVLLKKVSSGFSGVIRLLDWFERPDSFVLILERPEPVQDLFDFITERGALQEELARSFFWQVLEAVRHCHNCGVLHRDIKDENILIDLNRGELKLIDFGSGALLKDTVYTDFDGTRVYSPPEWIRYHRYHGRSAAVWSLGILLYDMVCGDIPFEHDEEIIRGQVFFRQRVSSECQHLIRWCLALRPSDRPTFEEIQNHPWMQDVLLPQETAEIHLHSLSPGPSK
Abl kinase (BCR-Abl), sequence (P00519 27-1130 limits assumed): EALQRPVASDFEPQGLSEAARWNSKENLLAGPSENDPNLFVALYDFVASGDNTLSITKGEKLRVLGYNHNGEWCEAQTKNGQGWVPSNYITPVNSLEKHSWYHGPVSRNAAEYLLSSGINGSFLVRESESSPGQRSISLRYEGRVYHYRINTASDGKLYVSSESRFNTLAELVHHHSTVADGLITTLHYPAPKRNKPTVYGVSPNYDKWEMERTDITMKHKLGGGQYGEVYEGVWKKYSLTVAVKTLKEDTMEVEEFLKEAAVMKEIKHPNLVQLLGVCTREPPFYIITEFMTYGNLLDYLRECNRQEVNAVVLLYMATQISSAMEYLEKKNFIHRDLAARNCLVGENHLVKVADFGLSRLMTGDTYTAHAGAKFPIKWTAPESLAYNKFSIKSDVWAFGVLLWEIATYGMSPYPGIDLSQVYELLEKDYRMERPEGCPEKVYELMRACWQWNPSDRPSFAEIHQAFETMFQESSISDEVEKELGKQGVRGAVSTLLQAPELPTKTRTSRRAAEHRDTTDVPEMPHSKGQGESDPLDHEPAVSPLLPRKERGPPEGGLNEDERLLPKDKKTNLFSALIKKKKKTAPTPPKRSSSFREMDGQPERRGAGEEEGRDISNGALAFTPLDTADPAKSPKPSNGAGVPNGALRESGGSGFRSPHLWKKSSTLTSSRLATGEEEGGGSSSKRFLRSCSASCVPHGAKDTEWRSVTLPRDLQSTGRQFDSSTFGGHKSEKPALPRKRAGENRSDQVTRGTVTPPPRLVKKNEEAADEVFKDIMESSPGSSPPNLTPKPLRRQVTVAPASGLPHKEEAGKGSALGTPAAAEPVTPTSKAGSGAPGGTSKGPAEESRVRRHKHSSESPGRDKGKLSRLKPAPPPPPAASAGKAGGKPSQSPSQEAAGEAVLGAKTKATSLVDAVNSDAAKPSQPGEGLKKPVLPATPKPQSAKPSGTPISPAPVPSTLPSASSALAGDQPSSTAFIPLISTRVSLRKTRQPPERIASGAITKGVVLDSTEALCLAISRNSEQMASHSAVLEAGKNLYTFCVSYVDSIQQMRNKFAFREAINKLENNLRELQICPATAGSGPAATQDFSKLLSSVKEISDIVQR

As to `Cc1nc(Nc2ncc(C(=O)Nc3c(C)cccc3Cl)s2)cc(N2CCN(CCO)CC2)n1` [Dasatinib, N-(2-chloro-6-methylphenyl)-2-[[6-[4-(2-hydroxyethyl)-1-piperazinyl]-2-methyl-4-pyrimidinyl]amino]-5-thiazole carboxamide], the “phosphorylated (activated) LYN” value with LYN is “decreased phosphorylated (activated) LYN”. Also, the cell invasion result in test [1] was “blocked invasion”. For the same molecule, the cell proliferation entry in test [2] was “not proliferation”.
As for `Cc1nn2c(ncc3c(=O)n(-c4ccccc4)ccc32)c1-c1ccccc1` [VI301, 2-methyl-3,7-diphenylpyrazolo[1,5-a]pyrido[3,4-e]pyrimidin-6(7H)-one], the inhibition at 100 µM on WNK3(h) amounted to 3%; on Abl kinase (BCR-Abl) it was 106%; on Lyn(h), 95%; against Pim-1(h), 12%; against CamK1, 26%. The “inhibition of LYN kinase (in words)” value on Lyn(h) is on record as “good inhibition”.

Values taken from patent publication US20130203789A1, “Novel Inhibitors of LYN Kinase and Methods Using Same” (VASSA INFORMATICS, priority 2012, published 2013).
